Earlier results as cited in US20150290272A1, “PHARMACEUTICAL COMPOSITION FOR PREVENTING/TREATING BRAIN INJURY AND ENHANCING RECOVERY OF SEQUELAE AND MANUFACTURE THEREOF” (PhytoHealth Corporation, priority 2014, published 2015).

Test system: acute ischemic stroke

rtPA: thrombolysis agent recombinant tissue plasminogen activator (rt-PA) (Actilyse) for acute ischemic stroke
increase in the number of people living without disability (at three to six months, 2014 review): 5% | overall benefit with respect to living without disability (given within three hours of symptom onset): 10% | increased risk of death (in the short term, 2014 review): 2% | people with large strokes who developed substantial brain hemorrhage as a complication (in vivo): 6.4%
